# According to patent US20070032537A1, “5-Substituted 2h-pyrazole-3-carboxylic acid derivatives as agonists for the acid receptor rup25 for the treatment of dyslipidemia and related diseases” (Arena Pharmaceuticals, Inc., priority 2003, published 2007):
# Like-named read-outs stand apart in the source and are kept apart here.
# Assays:
# hRUP25 [1] = biological target: T1, hRUP25 (Homo sapiens, UniProt Q8TDS4); test: Flash Plate adenylyl cyclase (cAMP) assay for agonists to hRUP25 in stably transfected CHO cells (clone 46); type: cell-based; conditions: read-out: RUP25 (EC50)
# T1 sequence (Q8TDS4 whole entry): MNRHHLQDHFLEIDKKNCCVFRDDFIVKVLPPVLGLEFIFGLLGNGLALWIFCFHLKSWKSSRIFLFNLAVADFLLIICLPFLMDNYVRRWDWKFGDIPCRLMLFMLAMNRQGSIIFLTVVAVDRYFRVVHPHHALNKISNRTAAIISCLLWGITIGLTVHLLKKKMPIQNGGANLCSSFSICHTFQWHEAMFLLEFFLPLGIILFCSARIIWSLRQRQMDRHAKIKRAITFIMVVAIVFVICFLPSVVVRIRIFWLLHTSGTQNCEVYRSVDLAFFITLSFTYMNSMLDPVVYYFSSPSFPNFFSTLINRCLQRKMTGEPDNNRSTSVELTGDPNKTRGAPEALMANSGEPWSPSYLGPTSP
# Description: A modified Flash Plate™ Adenylyl Cyclase kit (New England Nuclear; Cat. No. SMP004A) is used for direct identification of candidate compounds as agonists to hRUP25 in accordance with the following protocol:
# Stably transfected CHO cells (clone 46) were harvested from flasks via non-enzymatic means. The cells were washed in PBS and resuspended in the manufacturer's Assay Buffer. Live cells were counted using a hemacytometer and Trypan blue exclusion, and the cell concentration was adjusted to 2×10^6 cells/ml. cAMP standards and Detection Buffer (comprising 2 μCi of tracer [^125I]-cAMP (100 μl) to 11 ml Detection Buffer) were prepared and maintained in accordance with the manufacturer's instructions. Candidate compounds identified as per above (if frozen, thawed at room temperature) were added to their respective wells (preferably wells of a 96-well plate) at increasing concentrations (3 μl/well; 12 μM final assay concentration). To these wells, 100,000 cells in 50 μl of Assay Buffer were added and the mixture was then incubated for 30 minutes at room temperature, with gentle shaking. Following the incubation, 100 μl of Detection Buffer was added to each well, followed by incubation for 2-24 hours. Plates were counted in a Wallac MicroBeta™ plate reader using “Prot. #31” (as per manufacturer instructions).
# hRUP25 [2] = biological target: T1, hRUP25; test: cell-based
# [3] = tested on: rat epidimal fat derived adipocytes
# Description: (§1) Lipolysis assays were done following the isolation of adipocytes from-rat or human. The source of fat from rats was the epididymal fat and from humans was either subcutaneous or omental. Cells were isolated following collagenase digestion and floatation. An elevation of intracellular cAMP levels and concomitant activation of lipolysis via hormone sensitive lipase was accomplished using isoproterenol, forskolin, 3-isobutyl-1-methyl-xanthine (IBMX) or a combination thereof at concentrations and times determined empirically and depending on the source of tissue. […] Data was analyzed using Excel and PrismGraph.
# [4] = tested on: adipocyte primary cultures derived from human subcutaneous fat; test: cells; conditions: read-out: EC50, inhibition of isoproterenol induced lipolysis
# Description: as §1
# [5] = tested on: adipocyte primary cultures derived from human subcutaneous fat; conditions: read-out: EC50, inhibition of isoproterenol induced lipolysis
# Description: as §1
compound,measurement,setting,value
"COCc1cc(C(=O)O)[nH]n1 [Compound 63, 5-Methoxymethyl-2H-pyrazole-3-carboxylic acid]",EC50,hRUP25 [1],7.9 µM
CN1CCCC1c1cccnc1 (stereo not shown) [nicotine],EC50,hRUP25 [2],9.8 µM
"O=C(O)c1cccnc1 [nicotinic acid, pyridine-3-carboxylic acid]",inhibition of isoproterenol induced lipolysis,[3]; 10 μM,inhibiting isoproterenol induced lipolysis
same,dose-dependence of inhibition of isoproterenol induced lipolysis,[3]; increasing concentrations,dose-dependent inhibition
same,EC50,[4],716 nM
"c1cncc(-c2nn[nH]n2)c1 [Compound P-3-T, 3-tetrazole-5-pyridine]",EC50,[5],218 nM
"CSCc1cc(C(=O)O)[nH]n1 [Compound 48, 5-Methylsulfanylmethyl-2H-pyrazole-3-carboxylic acid]",EC50,hRUP25 [1],4.3 µM
